Reference: PMC6272295, “In Vitro Neuroprotective Activities of Compounds from Angelica shikokiana Makino” (Molecules, 2015)
Where two headings read alike, the source gives them in different places.

Columns and labels:
[1] = system: intracellular ROS in Neuro-2A cells; assay: Scavenging of intracellular reactive oxygen species (Bes-H2O2-AC, DFF fluorescence); format: cell-based, Mouse; conditions: for decrease of DFF fluorescence intensity (intracellular ROS): at 50 and 100 µM, H2O2 600 µM 30 min; for Intracellular ROS Scavenging: summary Table 4; as to Intracellular ROS Scavenging: key: +: Weak activity; ++: Strong activity
Description: (§1) Neuro-2A cell line was maintained in Eagle’s Minimum Essential medium supplemented with 10% fetal bovine serum, 1% of 100× antibiotic—antimitotic agents (containing penicillin and streptomycin) in a humid atmosphere of 5% (v/v) CO2 and 95% (v/v) air at 37 °C. Neuro-2A cells were plated in 96-well cell culture plates at a density of 3 × 10^4 cells/well for H2O2 and intracellular ROS assays and 2.5 × 10^3 cells/well for the Aβ25-35-assay.
This assay was performed as previously described with some modifications. Briefly, Neuro-2A cells were seeded in 96-well Clear Fluorescence Black Plate (number 655090, Greiner Bio-one, Tokyo, Japan). Cells were treated with three different concentrations (25, 50, 100 µM) of the samples. After 2 h incubation, cells were subjected to oxidative stress using 600 µM of H2O2 for 30 min. The nucleus was stained by Hoechst 33342 (Dojindo, Kumamoto, Japan), and the amount of difluorofluorescein (DFF) released from the reaction of H2O2 and BES-H2O2-Ac was taken as an indication of the amount of intracellular H2O2 and ROS. Images of each well were acquired using an IN Cell Analyzer 1000 (GE Healthcare, Buckinghamshire, UK) using 360-nm (Hoechst 33342) and 480-nm (BES-H2O2-Ac) excitation filters and monitored through 460-nm and 535-nm emission filters, respectively. Developer software was used to analyze the images of Hoechst 33342 and BES-H2O2-Ac staining, and the resulting data were then applied to Spotfire Decision Site Client 8.2 software for visualizing the results.

[2] = target: T1, AChE from Electrophorus electricus (Electrophorus electricus, UniProt O42275); assay: biochemical
T1 construct: purchased Sigma (St. Louis, MO, USA)
T1 sequence (O42275 24-633): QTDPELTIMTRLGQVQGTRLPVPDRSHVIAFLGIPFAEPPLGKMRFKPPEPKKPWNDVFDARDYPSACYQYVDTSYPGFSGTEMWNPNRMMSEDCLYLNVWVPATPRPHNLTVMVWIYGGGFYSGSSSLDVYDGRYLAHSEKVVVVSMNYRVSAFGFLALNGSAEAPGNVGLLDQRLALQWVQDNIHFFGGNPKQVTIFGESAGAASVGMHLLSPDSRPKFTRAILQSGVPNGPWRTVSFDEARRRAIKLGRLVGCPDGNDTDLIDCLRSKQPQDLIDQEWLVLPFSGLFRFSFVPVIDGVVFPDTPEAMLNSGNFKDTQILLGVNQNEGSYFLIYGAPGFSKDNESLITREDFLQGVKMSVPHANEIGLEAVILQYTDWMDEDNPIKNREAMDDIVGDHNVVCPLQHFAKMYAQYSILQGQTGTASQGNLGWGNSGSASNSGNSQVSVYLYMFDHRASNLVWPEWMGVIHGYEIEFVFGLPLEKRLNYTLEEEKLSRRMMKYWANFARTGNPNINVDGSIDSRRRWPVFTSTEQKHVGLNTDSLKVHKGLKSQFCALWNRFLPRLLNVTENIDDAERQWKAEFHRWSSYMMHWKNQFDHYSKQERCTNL
Description: AChEI activity was measured using Ellman’s method. AChE hydrolyzes the substrate ACTI into acetate and thiocholine. In a neutral and alkaline medium; thiocholine reacts with DTNB to give yellow colored 2-nitro-5-thiobenzoate, which can be detected spectrophotometrically at 405 nm. Briefly, in a 96-well plate, 25 µL of 15 mM ACTI, 125 µL of 3 mM DTNB in buffer B (50 mM Tris HCl, pH = 8, 0.1 M NaCl, 0.02 M MgCl2·6H2O), 50 µL of buffer A (50 mM Tris-HCl, PH 8, 0.1% BSA) and 25 µL of tested sample (dissolved in 25% DMSO) were mixed, and the absorbance was measured using a microplate reader (Biotek, Winooski, VT, USA) at 405 nm every 16 s ten times. Then, 25 µL of AChE (0.25 U/mL in buffer A) was added and the absorbance was measured ten times every 16 s. A solution of 25% DMSO was used as a negative control. Absorbance was plotted against time and enzyme activity was calculated from the slope of the line so obtained and expressed as a percentage compared to an assay using a buffer without any inhibitor. Fractions were tested at 400 µg/mL. To avoid any increase in absorbance due to the color of the compounds or spontaneous hydrolysis of the substrate, the absorbance before addition of the enzyme was subtracted from the absorbance after adding the enzyme.
(§2) IC50 values of isolated compounds in AChEI and scavenging of hydroxyl radical assays were calculated using Probit Analysis (SPSS Version 16.0 for Windows, SPSS Inc., Chicago, IL, USA) for five different concentrations in three independent experiments. Cell viability was expressed as a percentage of MTT reduction, assuming that the viability of cells treated with 1% DMSO as a negative control was 100%. Figures were built in Microsoft Excel 2010. All values are the mean ± SD of three independent experiments. Data were analyzed for statistical significance using one-way ANOVA, followed by Dunnet’s test as a post-hoc test with GraphPad Prism 5.0 software for Windows (Inc., San Diego, CA, USA).

[3] = Scavenging of hydroxyl radical, 2-deoxyribose degradation assay; conditions: for % Inhibition of deoxyribose degradation, Site-Specific / % Inhibition of deoxyribose degradation, Non Site-Specific: 300 µM; for % Inhibition of deoxyribose degradation, Non Site-Specific: 25 min, pH 7.4
Description: The inhibitory effect of bioactive compounds on deoxyribose degradation was determined by measuring the competition between deoxyribose and bioactive compounds for the hydroxyl radicals (^.OH) generated from the Fe^3+/ascorbate/EDTA/H2O2 system (referred to non-site-specific assay; the major activity measured is ^.OH scavenging) or an Fe^3+/ascorbate/H2O2 system (referred to as a site-specific assay; major activity measured is metal chelation). Both assays depend on the formation of a highly reactive hydroxyl radical, OH, by the interaction of iron ions with H2O2 through Fenton’s reaction. […] This assay was performed as previously described. Different concentrations of tested compounds were dissolved in 400 µL phosphate buffer (0.2 M, pH 7.4). Then, 50 µL of deoxyribose (60 mM), 50 µL of Na2EDTA (2 mM), 50 µL of FeCl3 (3.2 mM), 50 µL of H2O2 (60 mM) and 50 µL of ascorbic acid (2 mM) were added, and the total volume of the reaction mixture was adjusted to 1 mL with buffer. After water-bath incubation at 50 °C for 25 min, the reaction was terminated by 250 µL of trichloroacetic acid (10%, w/w). […] For site-specific hydroxyl-radical-scavenging activity, the reaction mixture was similar to the above method, except that EDTA was replaced by an equivalent volume of buffer.
as §2, with “Figures were built in Microsoft Excel 2010.” left out

neuro-2A cells [4] = assay: Protection against H2O2-induced neurotoxicity (MTT); format: cell-based, Mouse; conditions: for Protection against H2O2: summary Table 4; for neuroprotection against H2O2-induced neurotoxicity (in words): 6.25-100 µM, H2O2 150 µM
Description: as §1
(§3) Cell viability was determined by MTT reduction assay. Briefly, after treatment with isolated compounds, the media was replaced by fresh one after washing the cells with 100 µL PBS and 20 µL of MTT (5 mg/mL) was added to each well. After 4 h incubation at 37 °C, the state of cells was checked under microscope to confirm either cytotoxicity in H2O2 and Aβ25-35 wells or protection in positive controls and isolated compounds ones. The supernatants were aspirated carefully, and 150 µL of DMSO was added to each well to dissolve the dark blue formazan crystals. The absorbance was measured using a microplate reader at 570 nm.
H2O2 interacts with metals in the medium, producing highly cytotoxic hydroxyl radicals that induce neurotoxicity. So, active compounds are those that can scavenge free radicals and increase the cell viability. This assay was performed as previously described with slight modifications. Briefly, the concentration of H2O2 that decreased cell viability to about 50% was determined as follows: cells were cultured in a 96-well plate and after 24 h were further incubated with different concentrations of H2O2 (50, 100, 150, 200 µM) freshly prepared from 30% stock solution. After 24 h, cell viability was determined using the MTT reduction method. H2O2 at a concentration of 150 µM had the desired cytotoxicity and was used for the next step.

neuro-2A cells [5] = assay: Protection against Aβ25-35-induced neurotoxicity (MTT); format: cell-based, Mouse; conditions: for neuroprotection against Aβ25-35 (in words): at the highest concentration (100 µM); for Protection against Aβ25-35: summary Table 4; as to Protection against Aβ25-35: key: +: Weak activity; ++: Strong activity
Description: as §1, §3
Similarly, the concentration of Aβ25-35 that decreased cell viability to about 50% was determined. […] So, the cells were incubated with different concentrations of the isolated compounds (6.25, 12.5, 25, 50 and 100 µM) and EGCG as a positive control for 3 h followed by Aβ25-35 treatment for 72 h.

[6] = Ellman's method, read-out: IC50 in the AChEI assay
[7] = summary Table 4, read-out: AchEI IC50
[8] = Fe3+/ascorbate/EDTA/H2O2 system, read-out: IC50 hydroxyl radical scavenging, Non Site-Specific
[9] = Fe3+/ascorbate/H2O2 system without EDTA, read-out: IC50 hydroxyl radical scavenging, Site-Specific
[10] = summary Table 4 (values of the non site-specific assay), read-out: Hydroxyl Radical Scavenging/IC50

Molecule | decrease of DFF fluorescence intensity (intracellular ROS) [1] | Intracellular ROS Scavenging [1] | IC50 [2, 7] [µM] | IC50 [3, 8] [µM] | IC50 [3, 9] [µM] | Protection against H2O2 (neuro-2A cells [4]) | IC50 in the AChEI assay ([2]; Ellman's method) | also measured
COC(=O)C1(O)CC(O)C(O)C(OC(=O)C=Cc2ccc(O)c(O)c2)C1 (centres unmarked) [Methyl chlorogenate (10), methyl chlorogenate] | significantly decrease the fluorescence intensity | ++ | > 500 | 840 ± 12.4 | 920 ± 10.9 | ++ |  | IC50 [2, 6]: > 500 µM; inhibition at 500 µM ([2]; at 500 µM): 10%; IC50 [3, 10]: 840 ± 12.4 µM
O=Cc1ccc(CO)o1 [5-(Hydroxymethyl)-2-furaldehyde (7), 5-(hydroxymethyl)-2-furaldehyde] |  |  | > 500 |  |  |  | inactive | % Inhibition of deoxyribose degradation, Site-Specific [3]: -; % Inhibition of deoxyribose degradation, Non Site-Specific [3]: 4 ± 0.3%
Oc1cc(O)c2c(c1)OC(c1ccc(O)c(O)c1)C(O)C2 (centres unmarked) [Catechin (positive control), Catechin, reference compound] |  |  |  | 473 ± 8.6 | 534 ± 19.2 |  |  | 
OO [H2O2, reference compound] |  |  |  |  |  |  |  | cytotoxicity of H2O2 (neuro-2A cells [4]; 150 µM H2O2, 24 h, MTT): 48.2% ± 1.8%
Aβ25-35: amyloid β peptide fragment used to induce neurotoxicity (GSNKGAIIGLM; Amyloid-beta protein 42; UniProt P05067 696-706, looked up, fragment) [reference compound] |  |  |  |  |  |  |  | cytotoxicity of Aβ25-35 (neuro-2A cells [5]; 25 µM, 72 h incubation): 55% ± 4.6%
Nc1ncnc2c1ncn2[C@@H]1O[C@H](CO)[C@@H](O)[C@H]1O [Adenosine (15), adenosine] |  |  | > 500 |  |  |  | inactive | 
CC1(C)CC[C@]2(C)CC[C@]3(C)C(=CC[C@@H]4[C@@]5(C)CC[C@H](O)C(C)(C)[C@@H]5CC[C@]43C)[C@@H]2C1 [β-Amyrin (2), β-amyrin] |  |  | > 500 |  |  |  | inactive | % Inhibition of deoxyribose degradation, Site-Specific [3]: -; % Inhibition of deoxyribose degradation, Non Site-Specific [3]: -; neuroprotection against H2O2-induced neurotoxicity (in words) (neuro-2A cells [4]): did not show significant neuroprotection
O=c1c(O)c(-c2ccc(O)c(O)c2)oc2cc(O)cc(O)c12 [Quercetin (12), quercetin] | significantly decrease the fluorescence intensity | ++ |  | 672 ± 10.6 | 837 ± 21.6 | ++ |  | IC50 [3, 10]: 672 ± 10.6 µM; neuroprotection against Aβ25-35 (in words) (neuro-2A cells [5]): significant neuroprotection (p < 0.05); Protection against Aβ25-35 (neuro-2A cells [5]): +
O=c1cc(-c2ccc(O)c(O)c2)oc2cc(O)cc(O)c12 [Luteolin (9), luteolin] | significantly decrease the fluorescence intensity | ++ | > 500 | 753 ± 11.1 | 980 ± 15.8 | ++ |  | IC50 [2, 6]: > 500 µM; inhibition at 250 µM ([2]; at 250 µM): 30%; IC50 [3, 10]: 753 ± 11.1 µM; neuroprotection against Aβ25-35 (in words) (neuro-2A cells [5]): significant neuroprotection (p < 0.05); Protection against Aβ25-35 (neuro-2A cells [5]): +
CC1(C)CCC2(C)CCC3(C)C4CC=C5C(CCC(O)C5(C)C)C4(C)CCC3(C)C2C1 (stereo not drawn) [α-Glutinol (1), α-glutinol] |  |  | > 500 |  |  |  | inactive | neuroprotection against H2O2-induced neurotoxicity (in words) (neuro-2A cells [4]): did not show significant neuroprotection
O=C(/C=C/c1ccc(O)c(O)c1)O[C@@H]1C[C@](O)(C(=O)O)C[C@@H](O)[C@H]1O [Chlorogenic acid (11), chlorogenic acid] | significantly decrease the fluorescence intensity | ++ | > 500 |  |  | ++ | inactive | 
CCC(CCC(C)C1CCC2C3CC=C4CC(OC5OC(CO)C(O)C(O)C5O)CCC4(C)C3CCC12C)C(C)C (stereo not drawn) [β-Sitosterol-3-O-glucoside (5), β-sitosterol-3-O-glucoside] |  |  | > 500 |  |  |  | inactive | 
